Tests used:
[1] = clinical; parameters: species or system human; conditions: in vivo; for AUClast / AUC(0-t) / Tmax: male, po; for AUClast / AUC(0-t) / AUClast ratio Treatment B/A / Cmax ratio Treatment B/A / Tmax: human; for AUC(0-t): AUClast
From the text: Study periods were separated by a minimum of 4 days. […] The standard pharmacokinetic parameters are shown for both dosing conditions in Table 1.
This delay is indicative of a slower transit of the drug through the GI tract.

[2] = cited from earlier work
[3] = cited from earlier work; remark: listed apart in the source
[4] = compared with 5-ASA; cited from earlier work

Change of systemic level as measured by Cmax [1]	AUClast [1] [ng·h/mL]	AUC(0-t) [1] [ng·h/mL]	Structure (SMILES)	AUClast ratio Treatment B/A [1]	Cmax ratio Treatment B/A [1]	also measured
significant decreases	2096.4 ± 2577.31	2590 ± 1460	Nc1ccc(O)c(C(=O)O)c1 [5-ASA, 5-aminosalicylic acid, reference compound]			Change of systemic level as measured by AUClast [1]: significant decrease
			O=C(O)CCNC(=O)c1ccc(/N=N/c2ccc(O)c(C(=O)O)c2)cc1 [Balsalazide, reference compound]	1.146	0.791	Part of the prodrug that reaches the colon ([2]; taken orally): 99%
			O=C(O)CCNC(=O)c1ccc(/N=N/c2ccc(O)c(C(=O)O)c2)cc1 [Disodium balsalazide]			Water solubility [3]: highly water-soluble
significant decreases			CC(=O)Nc1ccc(O)c(C(=O)O)c1 [N-Ac-5-ASA, N-acetyl-5-ASA]	0.819	0.639	Anti-inflammatory activity in the colon [4]: lower anti-inflammatory activity; Part of the oral dose measured in the blood / systemically absorbed ([2]; after oral balsalazide): ~12 % of the oral dose
	302.0 ± 262.07	288 ± 158	Nc1ccc(C(=O)NCCC(=O)O)cc1 [4-ABA, 4-amino benzoyl-β-alanine]			Absorption of the released carrier component ([2]; released in the colon, largely eliminated in the feces): poorly absorbed; Tmax [1]: 24.0 ± 8.51 h; Tmax ([1]; Tmax): 12.7 ± 9.46 h

From patent US8921344B2, “Formulations and uses of 2-hydroxy-5-phenylazobenzoic acid derivatives” (Salix Pharmaceuticals, Inc., priority 2006, dated 2014)
